Earlier results in patent US6967090B2, “Nucleic acid and protein sequences of bovine epidermal growth factor” (Her Majesty the Queen in right of Canada, as represented by …, priority 2001, dated 2005).

How the values were obtained:
[1] = tested on: gut cells; conditions: piglet; WO 88/04180
[2] = tested on: jejunal brush-border membranes; conditions: rodent
[3] = tested on: rotavirus; conditions: piglets infected with rotavirus; Zijlstra et al., 1994
[4] = daily, 100 μg/kg body weight for nine days; U.S. Pat. No. 5,753,622
[5] = tested on: enteric infections; conditions: oral administration; Buret et al., 1997
[6] = tested on: gastric acid secretion; conditions: Hollenberg and Gregory 1980
[7] = target: EGF receptor (Homo sapiens, UniProt P00533); conditions: Tadaki and Niyogi, 1993

EGF: 6 kDa polypeptide composed of 53 amino acids; species of origin not stated in the cited studies
lactase and alkaline phosphatase activities [1]: without any marked effect | sucrase and maltase activity [1]: enhancing both sucrase and maltase activity | electrolytes, glucose and proline transport [2]: increases electrolytes, glucose and proline transport | intestinal functions [3]: improves intestinal functions | weight gain [4]: enhances weight gain | rate of enteric infections [5]: reduces the rate of enteric infections | reduction in weight gain caused by infection [5]: prevents the reduction in weight gain caused by infection

human EGF, lacking the last five amino acids on the COOH end: truncated human EGF lacking the last five amino acids on the COOH end (NSDSECPLSHDGYCLHDGVCMYIEALDKYACNCVVGYIGERCQYRDLK; not fully specified; Epidermal growth factor; UniProt P01133 971-1018, looked up, fragment)
capacity to inhibit gastric acid secretion [6]: retains its capacity to inhibit gastric acid secretion

human EGF: human EGF variant with tyrosine replaced by phenylalanine at position 13 (NSDSECPLSHDGFCLHDGVCMYIEALDKYACNCVVGYIGERCQYRDLKWWELR; not fully specified; Epidermal growth factor; UniProt P01133 971-1023, looked up, variant Y13F)
effect of substitution on binding to receptor [7]: little effect on the binding
